Assay results: patent publication US6933315B2, “Derivatives of isoindigo, indigo and indirubin and methods of treating cancer” (priority 2001, dated 2005)
Where two headings read alike, the source gives them in different places. Values belong to the compound of their own block, whether it stands above or below them.

Key:
PC-3 = assay: Growth inhibition by MTT, PC-3 prostate cancer cells; type: cell-based, Human; conditions: read-out: IC50 PC-3
Method: (§1) Growth inhibitory effects of NATURA and other agents on human cancer cells were determined by standard MTT (3-(4,5-dimethylthiazol-2-yl)-2,5-diphenyltetrazolium bromide Test) as described previously. Briefly, cancer cells grown exponentially were aliquoted into 96-well plates at a density of 5000 cells/200 μl per well in RPMI 1640 medium containing 10% FBS overnight. The cells in the plates were then exposed to series of dilution of indicated agent. After 72 h of incubation, 100 μl of the medium was removed from each of the wells and 50 μl of a 1 mg/ml solution of 3-(4,5-dimethylthiazol-2-yl)-2,5-diphenyltetrazolium bromide (MTT) was added to each well and the cells were incubated for additional 4 h. 200 μl of solution of 0.04 N HCl-isopropanol was added to each well to dissolve the black fromazan participates, and absorbance at 540 nm was measured on a 96-Well.

LNCaP = assay: Growth inhibition by MTT, LNCaP prostate cancer cells; type: cell-based, Human; conditions: MTT, 72 h exposure (Table 3), read-out: IC50 LNCaP
Method: as §1, with “Briefly, cancer cells grown exponentially were aliquoted into 96-well plates at a density of 5000 cells/200 μl per well in RPMI 1640 medium containing 10% FBS overnight.” left out
(§2) The cells in the plates were then exposed to series of dilution of indicated agent. After 72 h of incubation, 100 μl of the medium was removed from each of the wells and 50 μl of a 1 mg/ml solution of 3-(4,5-dimethylthiazol-2-yl)-2,5-diphenyltetrazolium bromide (MTT) was added to each well and the cells were incubated for additional 4 h. 200 μl of solution of 0.04 N HCl-isopropanol was added to each well to dissolve the black fromazan participates, and absorbance at 540 nm was measured on a 96-Well Microplate Reader. Each experiment was repeated at least three times.

DU145 = assay: Growth inhibition by MTT, DU145 prostate cancer cells; type: cell-based, Human; conditions: read-out: IC50 DU145
Method: as §1

DLD-1 = assay: Growth inhibition by MTT, DLD-1 colon cancer cells; type: cell-based, Human
Method: as §1
as §2, with “FIGS. 3-5 show the anticancer affects of NATURA in MCF-7 breast cancer cells, DLD-1 colon cancer cells, and LNCaP hormone-dependent prostate cancer cells. The cancer cells grown exponentially were aliquoted into 96-well plates at a density of 5000 cells/200 μl per well in RPMI 1640 medium containing 10% fetal bovine serum (FBS) overnight. The” for “The”

LOVO = assay: Growth inhibition by MTT, LOVO colon cancer cells; type: cell-based, Human; conditions: read-out: IC50 LOVO
Method: as §1

human cancer cell lines = assay: Growth inhibition by MTT, all tested human cancer cell lines; type: cell-based; conditions: range over breast, colon, prostate lines, three day exposure, read-out: IC50, growth inhibitory effects on all tested human cancer cell lines
Method: as §1

MCF-7 = assay: Growth inhibition by MTT, MCF-7 breast cancer cells; type: cell-based, Human
Method: as §1
as §2, with “FIGS. 3-5 show the anticancer affects of NATURA in MCF-7 breast cancer cells, DLD-1 colon cancer cells, and LNCaP hormone-dependent prostate cancer cells. The cancer cells grown exponentially were aliquoted into 96-well plates at a density of 5000 cells/200 μl per well in RPMI 1640 medium containing 10% fetal bovine serum (FBS) overnight. The” for “The”

SKBR-3 = assay: Growth inhibition by MTT, SKBR-3 breast cancer cells; type: cell-based, Human; conditions: read-out: IC50 SKBR-3
Method: as §1

[1] = biological target: T1, immuno-purified cdk2 from LNCaP cells (Homo sapiens, UniProt P24941); assay: Direct inhibition of immuno-purified cdk2 activity in vitro; type: biochemical; conditions: 50 μM, immuno-purified cdk2, positive control
T1 construct: Two hundred mg of total protein extracts were immuno-precipitated with cdk2 antibody overnight at 4° C
Method: (§3) Assay for cyclin dependent kinase activity: HUVEC and LNCaP cells were cultured in EMB (endothelial cell basal medium) and RPMI 1640 containing 10% FBS, respectively. The cells grown exponentially were exposed to indicated concentrations of meisoindigo or NATURA for 24 hr. The cells were harvested, washed, and total proteins extracted as described previously. One hundred μg of the proteins were immuno-precipitated using antibodies against cdk2, cdk4/6, PKC, ERK2 or cyclin D1 overnight at 4° C. in the presence of a cocktail of protease inhibitors. The immuno-precipitates were washed 4 times with protein extraction buffer and once with kinase assay buffer, and reacted with 75 μg/ml histone H1 in the presence of [γ-^32P]-ATP (2.5 μCi/10 μM). The phosphorylated histone H1 (represent cdk activity) was measured by scintillation counting or by SDS-polyacrylaimde gel electrophoresis. The direct inhibitory effects of Meisoindigo and NATURA were also measured by reaction of immuno-purified specific enzyme from untreated cells directly with the Meisoindigo or NATURA.
When immuno-purified cdk2 from LNCaP cells was reacted with histone H1 in the presence of different concentrations of NATURA-β and γ-[^32P]-ATP (2.5 μCi/[…]), the enzyme activity was decreased in a concentration-dependent manner.
Two hundred mg of total protein extracts were immuno-precipitated with cdk2 antibody overnight at 4° C. After 4 washes with PBSTDS, and once with kinase assay buffer, the immuno-purified enzyme was then reacted for 10 min with 10 mg of histone H1 in the presence of different concentrations of NATURA or 50 mM of genistein (as a positive control) and γ-[^32P]-ATP (2.5 mCi/10 mM). The phosphorylated histone H1 (reflecting cdk2 activity) was detected either by SDS-PAGE (upper panel), or radioactive scintillation counting (lower panel, after eliminating free γ-[^32P]-ATP).

[2] = test system: polychromatic erythrocytes from bone marrow; assay: Induction of micronuclei in rodent animals; type: in vivo; conditions: mice, 48 mg/kg intraperitoneally daily for 2 days, positive control
Method: Cyclophosphamine at dosage of 48 mg/kg was given intraperitoneally daily for 2 days as positive control. Six hrs after the latest administration, the animals were sacrificed, and polychromatic erythrocytes from bone marrow were stained with Giemsa to count micronuclei.

[3] = test system: extracellular signal-regulated protein kinase 2 (ERK2); assay: ERK2 activity from treated LNCaP cells; type: cell-based, Human; conditions: different concentrations, 15 min
Method: as §3, with “The immuno-precipitates were washed 4 times with protein extraction buffer and once with kinase assay buffer, and reacted with 75 μg/ml histone H1 in the presence of [γ-^32P]-ATP (2.5 μCi/10 μM).” left out, “NATURA. […]” for “NATURA.”
LNCaP cells at exponential growth phase were exposed to different concentrations of NATURA (panel A & B) for 24 hrs, or to PD98059 (panel C) for 15 min. […] Upper panels are the imagines of x-ray films from SDS-PAGE, and lower panels represent the densities of each band from the films determined by an Imagine Densitometer from the same films (expressed as the percent of control).

Walker 256 = assay: Anticancer activity against Walker 256 sarcoma; conditions: Walker 256, rat, oral; Indirubin 100 × 9, Meisoindigo 106 × 9 mg/kgxd
Method: Anticancer activity against Walker 256: Wistar rats with body weights between 50 to 55 grams, were randomly divided into several groups, ten of each, respectively. Approximately 2×10^6 of the Walker sarcoma cells were transplanted into a Wistar rat. Twenty-four hours after the transplantation, equal molar dosage (0.384 mM/kg) of NATURA or other sugar derivatives were given orally for 10 days. The animals in the control group were given 0.1 ml saline (drug vehicle, negative control) for the same periods of time as treated group. Twenty-four hours after the last administration, the animals were sacrificed and tumors were removed and weighed.
(§4) Briefly, C57 mice, body weight between 18 to 22 grams, and rat, body weight between 50 to 55 grams, were randomly divided into several groups, ten of each, respectively. Approximately 2×10^6 of Lewis cancer cells or Walker sarcoma cells were transplanted into mice or rat. […] The animals in the control group were given 0.1 ml saline (drug vehicle, negative control) for the same periods of time as treated group. The animals at end of the treatment were sacrificed and tumors were removed and weighed.
In order to assess the anticancer activities of NATURA and other sugar derivatives, Wistard rats transplanted with W256 were given the same molar of the tested compounds (0.384 mM/kg) for the same period of time (10 days).

Lewis Lung Cancer = assay: Anticancer activity in Lewis lung carcinoma animal model; type: in vivo, C57 mice; conditions: mice, oral, Indirubin 100 × 9, Meisoindigo 106 × 9 mg/kgxd
Method: as §4

[4] = Homo sapiens, PC-3, MTT, 72 h exposure
[5] = Homo sapiens, DLD-1, 72 h exposure

IC50 (PC-3; [4]): 134 ± 12.9 µM
IC50 (LNCaP; Homo sapiens, LNCaP): 40.6 ± 7.12 µM
SMILES: CC(C)(C)NC(=O)[C@H]1CC[C@H]2[C@@H]3CC[C@H]4NC(=O)C=C[C@]4(C)[C@H]3CC[C@]12C [Proscar]

IC50 (DU145; MTT, 72 h exposure): > 200 µM
IC50 (DLD-1; 72 h exposure): > 200 µM
IC50 (LOVO; MTT, 72 h exposure): > 200 µM
IC50 (human cancer cell lines): > 200 µM
IC50 (PC-3; MTT, 72 h exposure): > 200 µM
IC50 (LNCaP): 65.5 ± 9.46 µM
IC50 (MCF-7; 72 h exposure): > 200 µM
IC50 (SKBR-3; MTT, 72 h exposure): > 200 µM
SMILES: CS(=O)(=O)Nc1ccc([N+](=O)[O-])cc1OC1CCCCC1 [NS389]

IC50 (PC-3; [4]): 120 ± 17.3 µM
IC50 (LNCaP; Homo sapiens, LNCaP): 57.4 ± 7.21 µM
SMILES: CC(O)(CS(=O)(=O)c1ccc(F)cc1)C(=O)Nc1ccc(C#N)c(C(F)(F)F)c1 (centres unmarked) [Casodex]

inhibition at 50 µM [1]: ~56%
SMILES: O=c1c(-c2ccc(O)cc2)coc2cc(O)cc(O)c12 [genistein]

SMILES: O=P1(N(CCCl)CCCl)NCCCO1 (centres unmarked) [Cyclophosphamine]
micronuclei [2]: 41.16 per thousand

IC50 (DLD-1; [5]): 0.00315 ± 0.00037 µM
IC50 (LOVO; Homo sapiens, LoVo, MTT, 72 h exposure): 0.00364 ± 0.00051 µM
SMILES: CC(=O)O[C@H]1C(=O)[C@@]2(C)[C@H]([C@H](OC(=O)c3ccccc3)[C@]3(O)C[C@H](OC(=O)[C@H](O)[C@@H](NC(=O)c4ccccc4)c4ccccc4)C(C)=C1C3(C)C)[C@]1(OC(C)=O)CO[C@@H]1C[C@@H]2O [Paclitaxel]

SMILES: COc1cccc(-c2cc(=O)c3ccccc3o2)c1N [PD98059]
effect on ERK2 [3]: concentration-dependent inhibitory effects

SMILES: COc1cccc2c1C(=O)c1c(O)c3c(c(O)c1C2=O)C[C@@](O)(C(C)=O)C[C@@H]3O[C@H]1C[C@H](N)[C@H](O)[C@H](C)O1 [Daunomycin]
IC50 (DU145; Homo sapiens, DU-145, 72 h): 0.107 ± 0.004 µM
IC50 (DLD-1; [5]): 0.094 ± 0.013 µM
IC50 (LOVO; Homo sapiens, LoVo, 72 h): 0.035 ± 0.004 µM
IC50 (PC-3; Homo sapiens, PC-3, 72 h): 0.24 ± 0.018 µM
IC50 (MCF-7; Homo sapiens, MCF7, 72 h exposure): 0.054 ± 0.011 µM
IC50 (SKBR-3; Homo sapiens, SK-BR-3, 72 h): 0.061 ± 0.0051 µM

SMILES: O=C1Nc2ccccc2/C1=C1/Nc2ccccc2C1=O [Indirubin]
Inhibition (%) (Walker 256): 59.4 ± 2.9%
Tumor Size X ± SD (Walker 256): 3.94 ± 0.71
Inhibition (%) (Lewis Lung Cancer): 26.3 ± 2.8%
Tumor Size X ± SD (Lewis Lung Cancer): 2.58 ± 0.21

IC50 (DU145; MTT, 72 h exposure): > 50 µM
IC50 (DLD-1; 72 h exposure): 49.7 ± 5.72 µM
IC50 (LOVO; MTT, 72 h exposure): 75.3 ± 12.5 µM
IC50 (human cancer cell lines): ≥ 21.4 µM
IC50 (PC-3; MTT, 72 h exposure): > 50 µM
IC50 (LNCaP): 16 ± 3.19 µM
IC50 (MCF-7; 72 h exposure): 21.4 ± 3.78 µM
IC50 (SKBR-3; MTT, 72 h exposure): > 50 µM
SMILES: CC1=C(/C=C/C(C)=C/C=C/C(C)=C/C(=O)O)C(C)(C)CCC1 [Retinoid Acid]
